# Like-named read-outs stand apart in the source and are kept apart here. Marks after values point to notes of the source that are not given here.
# What was measured:
# [1] = Plasma PK of total radioactivity, [14C]-nifurtimox and metabolites after oral dosing (HPLC-LSC); type: in vivo; conditions: male Wistar rats; for %AUC(0-8) (relative to total radioactivity AUC(0-8)): oral 2.5 mg/kg, M-2+M-3, M-4, M-5 are estimates based on AUC(0-tn); for half-life / Tmax: rat; for half-life: plasma, interval up to 8 h, read-out: t½ (converted)
# Protocol: (§1) Animals were housed in suitable metabolism cages. […] Blood cells and plasma were separated by centrifugation. Plasma was stored at ≤-15°C prior to analysis. […] All biological samples were weighed immediately. […] The remaining carcass was also wet-weighed.
# Aliquots of individual plasma samples were pooled separately for each timepoint by equal volume. For protein precipitation, pooled plasma was treated with a three-fold volume of acetonitrile. Samples were homogenized and precipitated by centrifugation (20,000 g, 5 min). Samples were concentrated and analyzed using high-performance liquid chromatography (HPLC) with off-line radioactivity detection by LSC (HPLC-LSC).
# [2] = Stability study: metabolite profiles in snap-frozen plasma and urine at early timepoints after oral [14C]-nifurtimox; type: in vivo, male Wistar rats; conditions: oral 2.5 mg/kg, snap-frozen
# Protocol: as §1
# The combined supernatant was analyzed directly using HPLC-LSC.
# [3] = Quantification of nifurtimox and metabolites in human urine (LC-HRMS); type: in vivo; conditions: single oral 120 mg nifurtimox; for AE,urine(0–24h), fasted patients: mean of 6 fasted patients with Chagas disease; for AE,urine(0–24h), fed patients: mean of 6 fed patients with Chagas disease
# Protocol: Urine samples were collected from fasted and fed patients pre-dose (0 h) and at four post-dose intervals (0-4, 4-8, 8-12, and 12-24 h) and stored frozen until required. For analysis, urine samples were thawed at room temperature and homogenized by vortex mixing. […] Equal volumes (75 µL) of an internal standard solution of [^2H8]-nifurtimox dissolved in water (10 µg/mL) were added to each urine, calibration, or control sample and mixed thoroughly. Samples from 6 patients were then analyzed using liquid chromatography-high-resolution mass spectrometry (LC-HRMS) with a 1290 Infinity LC system equipped with a diode array detector and an Orbitrap Fusion™ Lumos™ Tribrid™ HRMS (Thermo Fisher Scientific, Bremen, Germany) with a heated electrospray ionization source. For quantification, the LC conditions were as described above for analysis of rat plasma, and the HRMS parameters were: mass range, 120-600 Da in full scan mode and all ion fragmentation in positive ionization mode; resolution, 240,000; ion source voltage, 3500 V; capillary temperature, 300°C; source temperature, 60°C.
# The system was calibrated using the relative peak area as a function of concentration, which was obtained by linear regression. Quantification was performed on a mass basis (μg/mL), with the final calculation for the percentage of dose excreted in urine made on a molar basis to account for the substantial differences (up to ~2.5-fold) in the molecular masses of the compounds of interest. The analytical precision for all analytes was in the range of 1.1% to 4.4%, with an accuracy of 94% to 107%. All concentrations in μg/mL were back-calculated to nmol/mL, and these concentrations were then used to calculate a total molar amount based on the urine volume collected during each interval.
# [4] = Quantification of nifurtimox and metabolites in human plasma (LC-HRMS), plasma PK; type: in vivo; conditions: fed; for AUC(tlast-∞) (extrapolated proportion): pooled plasma of 6 patients, single oral 120 mg nifurtimox; for AUC, % of total quantified exposure: sum of AUC of nifurtimox and M-1 to M-6 = 100%, single oral 120 mg
# Protocol: Plasma samples from timepoints 0, 0.25, 0.5, 0.75, 1, 1.5, 2, 2.5, 3, 4, 6, 8, 12, 15, and 24 h from 6 patients were analyzed. Blood samples were collected into lithium heparinized tubes. Blood cells and plasma were then separated by centrifugation, and the plasma was stored frozen until needed. For the analysis, plasma samples were thawed at room temperature and homogenized by vortex mixing. Equal volumes of plasma from the six patients for each timepoint were combined to a pooled volume of 200 µL. To precipitate protein, a 3-fold volume of acetonitrile/0.5% formic acid (v/v in water) was added to each pooled sample which was thoroughly mixed and then centrifuged at 20,000 g. […] For all analytes, the analytical precision ranged from 0.1% to 8.8%, and the accuracy was 95% to 108%.
# [5] = Quantification of nifurtimox and metabolites in rat plasma after a single high dose (200 mg/kg); type: in vivo, Wistar rats; conditions: Wistar, rat, plasma, po, 200 mg/kg
# Protocol: Blood cells and plasma were then separated by centrifugation, and the plasma was stored at ≤-15°C until required. For analysis, plasma samples were thawed at room temperature and homogenized by vortex mixing. Plasma samples were pooled separately for male and female rats by combining 25 µL from each of the 4 animals for each timepoint. […] To each pooled plasma (100 µL), calibration, or control sample, 300 µL of an internal standard solution containing [^2H8]-nifurtimox (500 ng/mL) and [^2H3]-M-6 (2500 ng/mL) in acetonitrile + 0.5% formic acid in water (v/v) was added and mixed thoroughly. All samples were then centrifuged (20,000 g, 5 min) to precipitate the protein. The supernatant was analyzed using a 1290 Infinity LC system equipped with a diode array detector and an Orbitrap Q-Exactive Plus HRMS (Thermo Fisher Scientific, Bremen, Germany) with a heated electrospray ionization source. […] The mobile phase gradient was: 0 min, 0% B; 2.5 min, 0% B; 3 min, 20% B; 8 min, 45% B; 9 min, 90% B; 10.1 min, 90% B; 12 min, 0% B; 13 min, 0% B. The following HRMS parameters were used: mass range, 120-200 Da (0-2.5 min) and 230-600 Da (2.5-13 min) in full scan mode; resolution, 280,000; ion source voltage, 3500 V; capillary temperature, 300°C; source temperature, 60°C.
# The calibration was based on the relative peak area as a function of concentration obtained by linear regression. […] Thus, all concentrations in μg/mL were back-calculated to nmol/mL. The PK parameters for each analyte were calculated using ToxKin software, as described above.
# [6] = Mass balance and metabolite profiling in excreta after oral [14C]-nifurtimox in intact rats; conditions: intact male Wistar rats, 2.5 mg/kg oral, up to 120 h; 2.5 mg/kg
# Protocol: After an adaption period, the animals were prepared for the study. Bile duct cannulation was performed on selected animals the day before their use in experiments.
# In a mass balance study (n = 5) and a PK study (n = 2 per timepoint), 2.5 mg/kg b.w. […] For i.v. administration, 2.5 mg/kg b.w. […] In an additional stability study, male Wistar rats (n = 3 per timepoint) were administered 2.5 mg/kg b.w. […] The total radioactivity concentration in the dosage form was confirmed by liquid scintillation counting (LSC).
# Animals were housed in suitable metabolism cages. Blood was collected from separate rats at 0.25, 0.5, 1, 1.5, 2, 3, 5, and 8 h post-dose and stored in lithium heparinized tubes. Blood cells and plasma were separated by centrifugation. Plasma was stored at ≤-15°C prior to analysis. […] At the end of the study, the cages were rinsed with water, and samples were collected. All biological samples were weighed immediately. Feces samples were homogenized with water to obtain a uniform radioactivity distribution. All samples were stored deep-frozen at ≤-15/-70°C before further processing. During the necropsy, selected organs and tissues were collected and wet-weighed. The remaining carcass was also wet-weighed. The carcass and all tissues were homogenized and stored at room temperature prior to processing for analysis. In the stability study, blood and urine were collected at 0.25 and 0.5 h post-dose. Plasma and urine were immediately frozen in liquid nitrogen and stored at -80°C to prevent degradation. The total radioactivity in samples and tissues was determined by LSC after appropriate sample preparation.
# Aliquots of individual urine or bile samples were pooled separately for each time interval by equal volume and analyzed using HPLC-LSC. Aliquots of individual feces samples were pooled separately for each time interval, ensuring that each aliquot contained the same amount of radioactivity. The pooled samples were extracted twice with a mixture of acetonitrile/water (80:20 v/v, 2 x 0.5 mL). The resulting suspensions were centrifuged (20,000 g, 5 min), and the supernatants were then combined for each time interval, concentrated, and subjected to HPLC-LSC.
# The amount of total radioactivity in urine, feces, bile, and tissues was determined by multiplying the volume or weight of the samples by the respective total radioactivity concentration. The amount of radioactivity recovered in the excreta (AE), cage wash, and tissues was compared with the administered radioactive dose to establish the radioactive balance. Cumulative excretion was calculated as the sum of the excretion for each collection interval. Arithmetic means and coefficients of variation (CV) were calculated for these percentages. During metabolite profiling, the concentration or amount of each analyte for each sample and timepoint or interval was calculated by multiplying the total radioactivity concentration or amount excreted of each sample with the percent area of each analyte obtained after HPLC-LSC separation.
# [7] = single oral 2.5 mg/kg [14C]-nifurtimox, pooled plasma
# [8] = single oral 2.5 mg/kg [14C]-nifurtimox
# [9] = female, read-out: AUC(0–24), female animals
# [10] = female, read-out: AUC, female animals
# [11] = female, read-out: Cmax, female animals
# [12] = female, read-out: tmax, female animals
# [13] = female, read-out: t½, female animals (converted)
# [14] = male, read-out: AUC(0–24), male animals
# [15] = male, read-out: AUC, male animals
# [16] = male, read-out: Cmax, male animals
# [17] = male, read-out: tmax, male animals
# [18] = male, read-out: t½, male animals (converted)
Structure (SMILES),"AUC [1, 7] [µg-eq*h/L]","AUC(0-tn) [1, 7] [µg-eq*h/L]","Cmax [1, 7] [µg-eq/L]","tn (time of last quantifiable concentration) [1, 7] [h]","half-life [1, 8] [h]","Tmax [1, 7] [h]","AE,urine(0–24h), fasted patients [3]","AE,urine(0–24h), fed patients [3]",AUC(tlast-∞) (extrapolated proportion) [4] [%],"AUC, % of total quantified exposure [4]","AUC(0-t) [5, 9] [µM·h]","AUC [5, 10] [µM·h]","Cmax [5, 11] [nM]","Tmax [5, 12] [h]","half-life [5, 13] [h]","AUC(0-t) [5, 14] [µM·h]","AUC [5, 15] [µM·h]","Cmax [5, 16] [nM]","Tmax [5, 17] [h]","half-life [5, 18] [h]",further results
CC1CS(=O)(=O)CCN1/N=C/C(=O)CCC#N (stereo not drawn) [M-1],767,715,138,8,1.36,3,3.2 % of dose,2.0 % of dose,7.6,1.8%,36.7,44.2,2050,8,4.6,28.2,46.6,1390,24,4.2,"%AUC(0-8) (relative to total radioactivity AUC(0-8)) [1]: 16.1%; AUC(0-8) [1, 7]: 715 µg-eq*h/L; share of sample radioactivity in plasma ([2]; 0.25 h post-dose): 1.4 % of sample radioactivity; share of sample radioactivity in plasma ([2]; 0.5 h post-dose): 2.3 % of sample radioactivity; component excreted in feces, oral dosing [6]: 1.5 % of the administered dose"
CC1CS(=O)(=O)CCN1/N=C/C(CCC(=O)O)=N\O (stereo not drawn) [M-2],,,,,,,1.0 % of dose,2.4 % of dose,7.8,1.4%,3.22,3.63,447,2,8.5,3.31,13.4,220,2,63.3,
CC1CS(=O)(=O)CCN1/N=C/C(=O)CCC(=O)O (stereo not drawn) [M-3],,,,,,,0.06 % of dose,0.15 % of dose,49.2,1.2^a %,3.54,3.7,547,1,5.8,3.64,10.1,255,1,39.6,"component excreted in feces, oral dosing [6]: 3.6 % of the administered dose"
CC(=O)NC(CSc1ccc(=O)n(N2CCS(=O)(=O)CC2C)c1)C(=O)O (stereo not drawn) [M-5],177,102,32.1,5,3.76,1.5,3.4 % of dose,6.6 % of dose,11.7,0.5%,1.42,2.43,186,3,25.3,4.64,8.02,328,3,8.2,%AUC(0-8) (relative to total radioactivity AUC(0-8)) ([1]; 2.5 mg/kg): 2.30^c %

# Reference: article PMC10661964 (Current Drug Metabolism, 2023)
